Results on five molecules are retold here after patent US10376589B2, “Method for the treatment of a solid tumour” (The University of Sydney, priority 2011, dated 2019).

Broadly, the IC50 is the point on the concentration scale where inhibition reaches its midpoint. Lower therefore signals higher potency.

Common to all, as to format: cell-based, human
The subject of one assay is DLD-1 colon cancer cells. Briefly: MTT cytotoxicity assay, 72 hrs. Conditions: DLD-1, MTT; for IC50: Homo sapiens. How it is done: (§1) Human DLD-1 colon cancer cells and human PA-1 ovarian cancer cells were obtained from the American Type Culture Collection (Manassas, Va., USA). Cells were maintained in complete media (Advanced DMEM (Invitrogen) and supplemented with 2% foetal bovine serum (Sigma) and 2 mM Glutamax™ (Invitrogen)) at 37° C. in a humidified, 5% CO2 atmosphere. Spheroids were formed by plating 1.5×10^5 cells/ml onto agarose coated 96 well imaging plates (BD Biosciences) and the cells allowed to aggregate for 72 hrs at 37° C. in a humidified, 5% CO2 atmosphere resulting in the formation of single spheroid per well.
(§2) Active compounds and/or nanoparticles were diluted as required in cell media immediately prior to the assay. Cytotoxicity was determined using the MTT assay as follows. 1×10^5 cells were seeded onto each well of flat bottomed 96-well plates and allowed to attach overnight. Solutions of compounds+/−nanoparticles were added to triplicate wells at concentrations spanning a 4-log range and incubated for 72 hrs. MTT (3-(4, 5-dimethylthiazolyl-2)-2,5-diphenyltetrazolium bromide) (1.0 mM) was added to each well and were incubated for a further 4 hrs. The culture medium was removed from each well, DMSO (150 μL) was added, the plate shaken for 5 seconds and the absorbance measured immediately at 600 nm in a Victor^3V microplate reader (Perkin Elmer). IC50 values were determined as the drug concentration that reduced the absorbance to 50% of that in untreated control wells. At least three independent experiments were performed for each compound with triplicate readings in each experiment.
(Formazan colour is commonly taken as a measure of viable cells.)

For assay [1], the system named is PA-1 ovarian cancer cells. Briefly: MTT cytotoxicity assay, 72 hrs. Particulars: PA-1, MTT. How it is done:
as §1, §2

Assay [2] concerns DLD-1 spheroids. Kind of assay: Cisplatin accumulation in spheroids by atomic absorption spectroscopy. Conditions: cisplatin 6 ppm without iron oxide particles, 48 hours incubation. How it is done: as §1
DLD-1 spheroids prepared as per example 25 were dosed as with 100 μl of solution of complete media containing cisplatin and iron oxide nanoparticles from examples 1 and 2 to yield a final concentration of both cisplatin and iron oxide of 6 ppm. The spheroids with iron oxide particles and cisplatin were replaced in the incubator and maintained at 37° C. in a 5% CO2 atmosphere. After 48 hours incubation, the free cisplatin and nanoparticles in the media were washed with excess phosphate buffered saline.

Assay [3] deals with DLD-1 spheroids. Briefly: Confocal imaging of fluorescent active compound diffusion into spheroids. On the procedure:
as §1
(a) To the suspension of the 3 day old spheroids from example 25, 100 μl of a solution containing nanoparticles incomplete media was added to each spheroid, to yield a final concentration of particles of 10 ppm in 200 μl total volume. he spheroids were replaced in an incubator at 37° C., 5% CO2. […]
DLD-1 spheroids from example 25 were either dosed with NP2 (example 2), which are particles coated with a stabiliser containing a phosphate anchoring group or NP19 or NP23 (examples 19 and 23), which are particles coated with a stabiliser that has no anchoring portion as per example 27b. The spheroid was then imaged by confocal microscopy (as per example 28) to visualise doxorubicin fluorescence.

The subject of a further assay is PA-1 spheroids. Briefly: Spheroid outgrowth assay. How it is done: as §1
(a) To the suspension of the 3 day old spheroids from example 25, 100 μl of a solution containing nanoparticles incomplete media was added to each spheroid, to yield a final concentration of particles of 10 ppm in 200 μl total volume. he spheroids were replaced in an incubator at 37° C., 5% CO2. After 24 hours incubation, the nanoparticles in the media were removed by washing with excess phosphate buffered saline prior to further experimentation. […]
Spheroids from example 25 were treated as per example 27b and 27c. […] Widefield fluorescence images of the brightfield and Hoechst 33342 stained nuclei were taken of the cells that had grown out from the spheroid (Olympus CellR). To quantitate the outgrowth, the number of nuclei within a 60° angle from the edge of the spheroid was counted. […]

Consider `CC(=O)O[C@H]1C(=O)[C@@]2(C)[C@H]([C@H](OC(=O)c3ccccc3)[C@]3(O)C[C@H](OC(=O)[C@H](O)[C@@H](NC(=O)c4ccccc4)c4ccccc4)C(C)=C1C3(C)C)[C@]1(OC(C)=O)CO[C@@H]1C[C@@H]2O` [Paclitaxel], for which the “72 hr IC50” value (with DLD-1 colon cancer cells (result in words); in assay [1] (result in words)) was “indeterminable*” in each case.
`N.N.[Cl][Pt][Cl]` [Cisplatin]: it took 600 nM to reach half-maximal inhibition in assay [1] (IC50). For the same molecule, the “concentration of cisplatin in the spheroids” value in the assay with DLD-1 spheroids [2] came out at 0.20 ppb.
In the case of `COc1cccc2c1C(=O)c1c(O)c3c(c(O)c1C2=O)C[C@@](O)(C(=O)CO)C[C@@H]3O[C@H]1C[C@H](N)[C@H](O)[C@H](C)O1` [Doxorubicin], the IC50 (in the assay on DLD-1 colon cancer cells; in assay [1] (Homo sapiens)) was 1000 nM in each case. Also, in the assay on DLD-1 spheroids [3] (doxorubicin alone), the “doxorubicin diffusion into the spheroid” value was “approximately 70 μm”.
For `O=c1[nH]cc(F)c(=O)[nH]1` [5-Fluorouracil], the IC50 (in the assay with DLD-1 colon cancer cells; in assay [1] (Homo sapiens)) was 10000 nM each time.
As to `O=C1c2c(O)ccc(O)c2C(=O)c2c(NCCNCCO)ccc(NCCNCCO)c21` [Mitoxantrone], the IC50 in the assay with DLD-1 colon cancer cells came to 40 nM; in assay [1] (Homo sapiens), 20 nM. The “mitoxantrone diffusion into the spheroid” value in the assay with DLD-1 spheroids [3] (mitoxantrone alone) was “approximately 70 μm”. Further, the “effectiveness, co-administration versus administration of active compound delayed 24 hours” value with PA-1 spheroids (PA-1 spheroids) is on record as “requires the co-administration of nanoparticles”. Moreover, the “effectiveness in PA-1 compared to DLD-1 spheroids” value in the assay on PA-1 spheroids (active compound co-administered with nanoparticles (examples 2, 3, 4, 5)) is “significantly more effective”.
